According to the supplement of paper PMC10307832:

Legend:
Assay in all cases: relative viability (nuclei count vs DMSO), 5 days (fraction); higher = more cells survive
201T = test system: 201T
Summary of the method: (§1)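 One day after seeding in 1536-well plates, lung cancer cell lines were dosed by pin tool. Dosing was either single-drug or a fixed anchor-drug dose plus five library-drug doses (not always all listed) in √10 steps. After 5 days, nuclei were stained in one fix-and-stain step and counted on 4× images, and relative viability is the nuclei count of treated wells over that of vehicle wells, given as the median of duplicate plates.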

ABC-1 = test system: ABC-1
Summary of the method: as §1

BEN = test system: BEN
Summary of the method: as §1

CAL-12T = test system: CAL-12T
Summary of the method: as §1

COR-L 105 = test system: COR-L 105
Summary of the method: as §1

COR-L23 = test system: COR-L23
Summary of the method: as §1

EKVX = test system: EKVX
Summary of the method: as §1

HARA = test system: HARA
Summary of the method: as §1

HCC-366 = test system: HCC-366
Summary of the method: as §1

LK-2 = test system: LK-2
Summary of the method: as §1

LU99A = test system: LU99A
Summary of the method: as §1

NCI-H1437 = test system: NCI-H1437
Summary of the method: as §1

NC(=O)Nc1cc(-c2cccc(F)c2)sc1C(=O)N[C@H]1CCCNC1 [AZD7762] + COc1cccc2cc(-c3nc([C@H]4CC[C@H](C(=O)O)CC4)n4ncnc(N)c34)[nH]c12 [OSI-027] (partner 0.5 µM)
relative viability (201T; first compound 0.01 µM): 0.795
relative viability (201T; first compound 0.03162 µM): 0.779
relative viability (201T; first compound 0.1 µM): 0.703
relative viability (201T; first compound 0.3162 µM): 0.423
relative viability (201T; first compound 1 µM): 0.254
relative viability (ABC-1; first compound 0.01 µM): 0.469
relative viability (ABC-1; first compound 0.03162 µM): 0.517
relative viability (ABC-1; first compound 0.1 µM): 0.414
relative viability (ABC-1; first compound 0.3162 µM): 0.349
relative viability (ABC-1; first compound 1 µM): 0.161
relative viability (BEN; first compound 0.01 µM): 0.284
relative viability (BEN; first compound 0.03162 µM): 0.297
relative viability (BEN; first compound 0.1 µM): 0.305
relative viability (BEN; first compound 0.3162 µM): 0.287
relative viability (BEN; first compound 1 µM): 0.246
relative viability (CAL-12T; first compound 0.01 µM): 0.676
relative viability (CAL-12T; first compound 0.03162 µM): 0.73
relative viability (CAL-12T; first compound 0.1 µM): 0.768
relative viability (CAL-12T; first compound 0.3162 µM): 0.487
relative viability (CAL-12T; first compound 1 µM): 0.124
relative viability (COR-L 105; first compound 0.01 µM): 0.636
relative viability (COR-L 105; first compound 0.03162 µM): 0.821
relative viability (COR-L 105; first compound 0.1 µM): 0.543
relative viability (COR-L 105; first compound 0.3162 µM): 0.472
relative viability (COR-L 105; first compound 1 µM): 0.406
relative viability (COR-L23; first compound 0.01 µM): 0.866
relative viability (COR-L23; first compound 0.03162 µM): 0.866
relative viability (COR-L23; first compound 0.1 µM): 0.758
relative viability (COR-L23; first compound 0.3162 µM): 0.711
relative viability (COR-L23; first compound 1 µM): 0.285
relative viability (EKVX; first compound 0.01 µM): 0.726
relative viability (EKVX; first compound 0.03162 µM): 0.75
relative viability (EKVX; first compound 0.1 µM): 0.653
relative viability (EKVX; first compound 0.3162 µM): 0.604
relative viability (EKVX; first compound 1 µM): 0.628
relative viability (HARA; first compound 0.01 µM): 0.506
relative viability (HARA; first compound 0.03162 µM): 0.609
relative viability (HARA; first compound 0.1 µM): 0.564
relative viability (HARA; first compound 0.3162 µM): 0.59
relative viability (HARA; first compound 1 µM): 0.16
relative viability (HCC-366; first compound 0.01 µM): 1.02
relative viability (HCC-366; first compound 0.03162 µM): 0.896
relative viability (HCC-366; first compound 0.1 µM): 0.985
relative viability (HCC-366; first compound 0.3162 µM): 0.869
relative viability (HCC-366; first compound 1 µM): 0.122
relative viability (LK-2; first compound 0.01 µM): 0.192
relative viability (LK-2; first compound 0.03162 µM): 0.228
relative viability (LK-2; first compound 0.1 µM): 0.213
relative viability (LK-2; first compound 0.3162 µM): 0.186
relative viability (LK-2; first compound 1 µM): 0.165
relative viability (LU99A; first compound 0.01 µM): 0.323
relative viability (LU99A; first compound 0.03162 µM): 0.365
relative viability (LU99A; first compound 0.1 µM): 0.352
relative viability (LU99A; first compound 0.3162 µM): 0.326
relative viability (LU99A; first compound 1 µM): 0.217
relative viability (NCI-H1437; first compound 0.01 µM): 0.888
relative viability (NCI-H1437; first compound 0.03162 µM): 0.833
